{"source": "patent US20240336596A1", "about": "“PARP7 INHIBITOR AND USE THEREOF” (NOVOSTAR PHARMACEUTICALS, LTD., priority 2022, published 2024)", "test_system": "NCI-H1373 cancer cells", "assay": "NCI-H1373 cancer cell growth inhibition (CellTiter-Glo, 144 hours)", "type": "cell-based", "conditions": "Homo sapiens, 144 hours culture", "experimental": "Promega CellTiter-Glo cell activity assay kit (Item No.: Promege-G7573) was used to determine the cell activity. 90 μL NCI-H1373 cell suspension (ATCC, catalog No. CRL-5866, batch No. 58078716) was spread into the pores of the 96-well plate with 3500 cells per well. After 24 hours, the 10 μL prepared 10× compound working solution was added into the pores of the cell culture plate with a final concentration of 10 μM. 3.3333 μM, 1.1111 μM, 0.3704 μM, 0.1235 μM, 0.0412 μM, 0.0137 μM, 0.0046 μM, 0.0015 μM, 0.0005 μM, 10 μL DMSO was added to the solvent control, and the final concentration of DMSO was 0.2%. The 0-day plates were collected for analysis, and after 144 hours of culture, the growth condition of cells was detected according to the instructions of CellTiter-Glo cell activity assay kit. Add 50 μL of CellTiter-Glo working liquid into each hole of the cell culture plate, shake the plates in the dark for 2 minutes until cell lysis, and place at room temperature for 10 minutes to detect the luminous signal (RUL) of each cell hole on the 2104En Vision board reader.\nCalculation formula: Growth inhibition rate %=(1−(RLU compound−RLU Day0)/(RLU solvent control−RLU Day0))*100%. The dose-response curves of each compound were fitted by GraphPad Prism 8 to obtain IC50 values.\nFor the matter, IC50 values less than 0.1 μM are labeled “+++”, values from 0.1 to 1 μM are labeled “++”, and values greater than 1 to 10 μM are labeled “+”.", "data": [{"smiles": "C[C@@H](CONC(=O)CC1CCN(c2ncc3c(n2)CCC3=O)CC1)Nc1cn[nH]c(=O)c1C(F)(F)F", "note": "[Example 42, (S)—N-(2-((6-oxo-5-(trifluoromethyl)-1,6-dihydropyridazin-4-yl)amino)propoxy)-2-(1-(5-oxo-6,7-dihydro-5H-cyclopenta(d)pyrimidin-2-yl)piperidin-4-yl)acetamide]", "values": [{"measurement": "IC50", "value": "1000 to 10000", "unit": "nM"}]}, {"smiles": "C[C@@H](CON(C)C(=O)CC1CCN(c2ncc(C(F)(F)F)cn2)CC1)Nc1cn[nH]c(=O)c1C(F)(F)F", "note": "[Example 45, (S)—N-methyl-N-(2-((6-oxo-5-(trifluoromethyl)-1,6-dihydropyridazin-4-yl)amino)propoxy)-2-(1-(5-(trifluoromethyl)pyrimidin-2-yl)piperidin-4-yl)acetamide]", "values": [{"measurement": "IC50", "value": "1000 to 10000", "unit": "nM"}]}, {"smiles": "[2H]C(C(=O)NOC[C@H](C)Nc1cn[nH]c(=O)c1C(F)(F)F)C1=CCN(c2ncc(C(F)(F)F)cn2)CC1", "note": "(some centres unmarked) [Example 62]", "values": [{"measurement": "IC50", "value": "1000 to 10000", "unit": "nM"}]}, {"smiles": "CC1=C(CC(=O)NOC[C@H](C)Nc2cn[nH]c(=O)c2C(F)(F)F)CCN(c2ncc(C3CC3)cn2)C1", "note": "[Example 31, (S)-2-(1-(5-cyclopropylpyrimidin-2-yl)-5-methyl-1,2,3,6-tetrahydropyridin-4-yl)-N-(2-((6-oxo-5-(trifluoromethyl)-1,6-dihydropyridazin-4-yl)amino)propoxy)acetamide]", "values": [{"measurement": "IC50", "value": "100 to 1000", "unit": "nM"}]}, {"smiles": "C[C@@H](CONC(=O)CC1CCN(c2ncc3c(n2)CC[C@@]3(C)O)CC1)Nc1cn[nH]c(=O)c1C(F)(F)F", "note": "[Example 61]", "values": [{"measurement": "IC50", "value": "1000 to 10000", "unit": "nM"}]}, {"smiles": "C[C@@H](CONC(=O)C[C@H]1CCN(c2ncc(C(F)(F)F)cn2)C[C@H]1O)Nc1cn[nH]c(=O)c1C(F)(F)F", "note": "[Example 54, 2-((3S,4R)-3-hydroxy-1-(5-(trifluoromethyl)pyrimidin-2-yl)piperidin-4-yl)-N—((S)-2-((6-oxo-5-(trifluoromethyl)-1,6-dihydropyridazin-4-yl)amino)propoxy)acetamide]", "values": [{"measurement": "IC50", "value": "1000 to 10000", "unit": "nM"}]}, {"smiles": "C[C@@H](CONC(=O)CC1CCN(c2ccc(C#N)cn2)CC1)Nc1cn[nH]c(=O)c1C(F)(F)F", "note": "[Example 34, (S)-2-(1-(5-cyanopyridin-2-yl)piperidin-4-yl)-N-(2-((6-oxo-5-(trifluoromethyl)-1,6-dihydropyridazin-4-yl)amino)propoxy)acetamide]", "values": [{"measurement": "IC50", "value": "100 to 1000", "unit": "nM"}]}, {"smiles": "CC1CN(c2ncc(C(F)(F)F)cn2)CCC1CC(=O)NOC[C@H](C)Nc1cn[nH]c(=O)c1C(F)(F)F", "note": "(stereo partly drawn) [Example 52, 2-(3-methyl-1-(5-(trifluoromethyl)pyrimidin-2-yl)piperidin-4-yl)-N—((S)-2-((6-oxo-5-(trifluoromethyl)-1,6-dihydropyridazin-4-yl)amino)propoxy)acetamide]", "values": [{"measurement": "IC50", "value": "1000 to 10000", "unit": "nM"}]}, {"smiles": "C[C@@H](CONC(=O)CC1CCN(c2ccc(C(F)(F)F)cn2)CC1)Nc1cn[nH]c(=O)c1C(F)(F)F", "note": "[Example 32, (S)—N-(2-((6-oxo-5-(trifluoromethyl)-1,6-dihydropyridazin-4-yl)amino)propoxy)-2-(1-(5-(trifluoromethyl)pyridin-2-yl)piperidin-4-yl)acetamide]", "values": [{"measurement": "IC50", "value": "100 to 1000", "unit": "nM"}]}, {"smiles": "C[C@@H](CONC(=O)C=C1CCN(c2ncc(C(F)(F)F)cn2)CC1)Nc1cn[nH]c(=O)c1C(F)(F)F", "note": "[Example 20, (S)—N-(2-((6-oxo-5-(trifluoromethyl)-1,6-dihydropyridazin-4-yl)amino)propoxy)-2-(1-(5-(trifluoromethyl)pyrimidin-2-yl)piperidin-4-ylidene)acetamide]", "values": [{"measurement": "IC50", "value": "1000 to 10000", "unit": "nM"}]}, {"smiles": "C[C@@H](CONC(=O)C1(C2CCN(c3ncc(C(F)(F)F)cn3)CC2)CC1)Nc1cn[nH]c(=O)c1C(F)(F)F", "note": "[Example 50, (S)—N-(2-((6-oxo-5-(trifluoromethyl)-1,6-dihydropyridazin-4-yl)amino)propoxy)-1-(1-(5-(trifluoromethyl)pyrimidin-2-yl)piperidin-4-yl)cyclopropanecarboxamide]", "values": [{"measurement": "IC50", "value": "1000 to 10000", "unit": "nM"}]}, {"smiles": "C[C@@H](CONS(=O)(=O)CC1CCN(c2ncc(C(F)(F)F)cn2)CC1)Nc1cn[nH]c(=O)c1C(F)(F)F", "note": "[Example 47, (S)—N-(2-((6-oxo-5-(trifluoromethyl)-1,6-dihydropyridazin-4-yl)amino)propoxy)-1-(1-(5-(trifluoromethyl)pyrimidin-2-yl)piperidin-4-yl)methanesulfonamide]", "values": [{"measurement": "IC50", "value": "1000 to 10000", "unit": "nM"}]}, {"smiles": "C[C@@H](CONC(=O)CN1CCC2(CCN(c3ncc(C(F)(F)F)cn3)CC2)C1)Nc1cn[nH]c(=O)c1C(F)(F)F", "note": "[Example 56, (S)—N-(2-((6-oxo-5-(trifluoromethyl)-1,6-dihydropyridazin-4-yl)amino)propoxy)-2-(8-(5-(trifluoromethyl)pyrimidin-2-yl)-2,8-diazaspiro(4.5)decan-2-yl)acetamide]", "values": [{"measurement": "IC50", "value": "1000 to 10000", "unit": "nM"}]}, {"smiles": "C[C@@H](CONC(=O)C[C@H]1CCN(c2ncc(C(F)(F)F)cn2)C[C@@H]1O)Nc1cn[nH]c(=O)c1C(F)(F)F", "note": "[Example 55, 2-((3R,4R)-3-hydroxy-1-(5-(trifluoromethyl)pyrimidin-2-yl)piperidin-4-yl)-N—((S)-2-((6-oxo-5-(trifluoromethyl)-1,6-dihydropyridazin-4-yl)amino)propoxy)acetamide]", "values": [{"measurement": "IC50", "value": "1000 to 10000", "unit": "nM"}]}]}
